Assay results as given in patent US6444615B1, “Herbicidal imidazolidinetrione and thioxo-imidazolidinediones” (Dow AgroSciences LLC, priority 2000, dated 2002).

What was measured:
Type in all cases: in vivo
Conditions in all cases: 1200 g/ha, scale of 0-100, 0 no activity, 100 total control, about two or four weeks after application
[1] = tested on: Hairy Beggarticks (Bidens pilosa); assay: Herbicidal pre-emergence test, Hairy Beggarticks
Description: (§1) Listed below, a typical planting design for the test, consisting of four monocot weeds, four dicot weeds and one sedge weed. [table] For each compound, evaluation tests were carried out according to the following procedures: For preemergence tests, immediately after planting, the test compound was sprayed directly onto the soil surface. The flats or pots were placed in the greenhouse and then watered. For postemergence tests, seeds were allowed to germinate and grow for 10 to 21 days before application. The test plants were selected for uniformity, size and stage of development. The test plants were then treated with the test compound, returned to the greenhouse and watered. Untreated plants were used as a comparison. The compound to be evaluated was dissolved in an appropriate solvent, usually acetone, or a formulation of the evaluated compounds as described above, was added to the water, and sprayed over the flats or pots using a carrier volume equivalent to 187 or 468 liters per hectare to give a rate of application in grams per hectare (g/ha). About two or four weeks after application of the test compounds, the state of the plant was observed. Each species was evaluated on a scale of 0-100 in which 0 equals no activity and 100 equals total control.

[2] = tested on: Hairy Beggarticks (Bidens pilosa); assay: Herbicidal post-emergence test, Hairy Beggarticks
Description: as §1

[3] = tested on: Nightshade, (black) (Solanum nigrum); assay: Herbicidal pre-emergence test, Nightshade (black)
Description: as §1

[4] = tested on: Nightshade, (black) (Solanum nigrum); assay: Herbicidal post-emergence test, Nightshade (black)
Description: as §1

[5] = tested on: Smartweed, (pale) (Polygonum lapathifolium); assay: Herbicidal pre-emergence test, Smartweed (pale)
Description: as §1

[6] = tested on: Smartweed, (pale) (Polygonum lapathifolium); assay: Herbicidal post-emergence test, Smartweed (pale)
Description: as §1

[7] = tested on: Velvetleaf (Abutilon theophrasti); assay: Herbicidal pre-emergence test, Velvetleaf
Description: as §1

[8] = tested on: Velvetleaf (Abutilon theophrasti); assay: Herbicidal post-emergence test, Velvetleaf
Description: as §1

[9] = tested on: Barnyardgrass (Echinochloa crusgalli); assay: Herbicidal pre-emergence test, Barnyardgrass
Description: as §1

[10] = tested on: Barnyardgrass (Echinochloa crusgalli); assay: Herbicidal post-emergence test, Barnyardgrass
Description: as §1

[11] = tested on: Crabgrass (large) (Digitaria sanguinalis); assay: Herbicidal pre-emergence test, Crabgrass (large)
Description: as §1

[12] = tested on: Crabgrass (large) (Digitaria sanguinalis); assay: Herbicidal post-emergence test, Crabgrass (large)
Description: as §1

[13] = tested on: Foxtail, (green) (Setaria viridis); assay: Herbicidal pre-emergence test, Foxtail (green)
Description: as §1

[14] = tested on: Foxtail, (green) (Setaria viridis); assay: Herbicidal post-emergence test, Foxtail (green)
Description: as §1

[15] = tested on: Nutsedge, (yellow) (Cyperus esculentus); assay: Herbicidal pre-emergence test, Nutsedge (yellow)
Description: as §1

[16] = tested on: Nutsedge, (yellow) (Cyperus esculentus); assay: Herbicidal post-emergence test, Nutsedge (yellow)
Description: as §1

[17] = tested on: Perennial Ryegrass (Lolium perenne); assay: Herbicidal pre-emergence test, Perennial Ryegrass
Description: as §1

[18] = tested on: Perennial Ryegrass (Lolium perenne); assay: Herbicidal post-emergence test, Perennial Ryegrass
Description: as §1

SMILES | Herbicidal Activity BID (pre-emergence) [1] | Herbicidal Activity BID (post-emergence) [2] | Herbicidal Activity NS (pre-emergence) [3] | Herbicidal Activity NS (post-emergence) [4] | Herbicidal Activity SMT (pre-emergence) [5] | Herbicidal Activity SMT (post-emergence) [6] | Herbicidal Activity VEL (pre-emergence) [7] | Herbicidal Activity VEL (post-emergence) [8] | Herbicidal Activity BYG (pre-emergence) [9] | Herbicidal Activity BYG (post-emergence) [10] | Herbicidal Activity CRB (pre-emergence) [11] | Herbicidal Activity CRB (post-emergence) [12] | Herbicidal Activity FOX (pre-emergence) [13] | Herbicidal Activity FOX (post-emergence) [14] | Herbicidal Activity NUT (pre-emergence) [15] | Herbicidal Activity NUT (post-emergence) [16] | Herbicidal Activity RYE (pre-emergence) [17] | Herbicidal Activity RYE (post-emergence) [18]
CN1C(=O)C(=O)N(c2cc(OC3CCCC3)c(Cl)cc2F)C1=O [Compound 3] | 0 | 80 | 0 | 80 | 0 | 85 | 0 | 100 | 0 | 30 | 0/0 | 0/0 | 0 | 60 | 0/0 | 0/0 | 0/0 | 0/0
CCN1C(=O)C(=O)N(c2cc(OC3CCCC3)c(Cl)cc2F)C1=O [Compound 4] | 0 | 85 | 0 | 85 | 0 | 90 | 0 | 100 | 0 | 60 | 0/0 | 0/0 | 0 | 60 | 0/0 | 0/0 | 0/0 | 0/0
O=C1C(=O)N(c2cc(OC3CCCC3)c(Cl)cc2F)C(=O)N1CCCl [Compound 6] | 30 | 0 | 30 | 80 | 30 | 0 | 0/0 | 0/0 | 40/40 | 40/40 | 30 | 0 | 30 | 0 | 0/0 | 0/0 | 0/0 | 0/0
CCCN1C(=O)C(=O)N(c2cc(OC3CCCC3)c(Cl)cc2F)C1=O [Compound 8] | 100 | 95 | 100/100 | 100/100 | 20 | 100 | 100/100 | 100/100 | 0 | 60 | 100 | 40 | 0 | 95 | 0/0 | 0/0 | 0/0 | 0/0
